Results as given in US20250188057A1, “NON-AROMATIC CYCLIC-PYRIMIDINE ANALOGS AS GLUCOSYLCERAMIDE SYNTHASE INHIBITORS” (Merck Sharp & Dohme LLC, priority 2022, published 2025).

Target: glucosylceramide synthase (GCS) (Homo sapiens (Human), UniProt Q16739)
Experiment: UDP-Glo glucosylceramide synthase biochemical assay
Conditions: endogenous GCS in Golgi preparations isolated from human A375 malignant melanoma skin cells; UDP detection by luminescence
Procedure, shortened: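 Endogenous GCS in A375 Golgi preparations (1.5 μg total protein) was preincubated with compound for 30 min at RT, then reacted with UDP-glucose and ceramide for 20 h at RT. UDP was detected by luciferase luminescence, normalized to DMSO and reference-inhibitor controls, with EC50 and % Emax from a 4PL fit.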

Chain of glucosylceramide synthase (GCS) (Q16739 whole entry): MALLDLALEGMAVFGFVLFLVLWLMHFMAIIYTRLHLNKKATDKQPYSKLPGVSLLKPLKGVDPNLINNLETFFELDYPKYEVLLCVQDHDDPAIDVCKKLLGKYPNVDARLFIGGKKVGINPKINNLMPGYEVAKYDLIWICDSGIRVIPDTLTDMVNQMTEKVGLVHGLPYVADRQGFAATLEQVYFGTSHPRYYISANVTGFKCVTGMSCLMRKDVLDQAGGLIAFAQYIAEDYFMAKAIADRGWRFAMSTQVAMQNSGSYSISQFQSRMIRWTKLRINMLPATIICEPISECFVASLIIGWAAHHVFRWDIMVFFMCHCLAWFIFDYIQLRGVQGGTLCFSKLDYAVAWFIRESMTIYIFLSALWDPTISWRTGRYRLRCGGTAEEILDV

SMILES | IC50 [nM]
OCc1cnc(C2CC2)nc1OC[C@@H]1CCN(c2ccc(C(F)(F)F)nc2)C1 [Compound 2, (R)-(2-cyclopropyl-4-((1-(6-(trifluoromethyl)pyridin-3-yl)pyrrolidin-3-yl)methoxy)pyrimidin-5-yl)methanol] | 568
N#Cc1cnc(C2CC2)nc1OC[C@H]1C[C@@H]1c1ccc(F)cn1 [Compound 61, 2-cyclopropyl-4-(((1S,2S)-2-(5-fluoropyridin-2-yl)cyclopropyl)methoxy)pyrimidine-5-carbonitrile] | 1030
N#Cc1cnc(C2CC2)nc1OC[C@H]1CCN(c2ccnc(C3CCC3)c2)C1 [Compound 27, (S)-4-((1-(2-cyclobutylpyridin-4-yl)pyrrolidin-3-yl)methoxy)-2-cyclopropylpyrimidine-5-carbonitrile] | 3620

Other lines, results leading:

IC50 [nM] | SMILES
352 | N#Cc1cnc(C2CC2)nc1N1C[C@@H]2C[C@H]1CN2Cc1ccc(Cl)cc1 [Compound 89, 4-((1S,4S)-5-(4-chlorobenzyl)-2,5-diazabicyclo[2.2.1]heptan-2-yl)-2-cyclopropylpyrimidine-5-carbonitrile]
218 | N#Cc1ccccc1C1CCN(c2nc(C3CC3)ncc2C#N)C1 (stereo not shown) [Compound 87, 4-(3-(2-cyanophenyl)pyrrolidin-1-yl)-2-cyclopropylpyrimidine-5-carbonitrile]
937 | N#Cc1cnc(C2CC2)nc1N1CC2OCCN(Cc3ccccc3)C2C1 (stereo not shown) [Compound 86, 4-(4-benzylhexahydropyrrolo[3,4-b][1,4]oxazin-6(2H)-yl)-2-cyclopropylpyrimidine-5-carbonitrile]

Tested on: GD and PD patient-derived induced pluripotent stem cell (iPSC) neurons
Experiment: not given
Conditions: Zunke, F. et al., Neuron 2018; cited from earlier work

SMILES | formation of pathological α-synuclein aggregates
CCCCCCCC(=O)N[C@H](CN1CCCC1)[C@H](O)c1ccc2c(c1)OCCO2 [eliglustat, Eliglustat] | reverse the formation of pathological α-synuclein aggregates
